# Reference: PMC10818746, “Inhibition of CYP1A1 Alleviates Colchicine-Induced Hepatotoxicity” (Toxins, 2024)
# How the values were obtained:
# [1] = tested on: CYP1A1; test: CYP1A1 gene and protein expression in the liver of colchicine-treated mice; format: in vivo, C57BL/6J mice; settings: colchicine 3, 5 mg/kg by gavage for 3 days; dose-dependent
# Description: (§1) Ruoyue Huang, Jingyi Duan, We n Huang, Ya n Cheng, Bei wei Zhu and Fei Li
# (§2) Supplementary materials and methods
# (§3) Reference numbers refer to the main text list
# (§4) UHPLC‐Q exactive plus MS Analysis
# (§5) All samples were analyzed on a liquid chromatography system including a Vanquish autosampler, Vanquish detector, Vanquish pump (Thremo Fisher Scientific, Santa Clara, CA). Samples were separated on an ACQUITY UPLC HSS T3 column (2.1×100 mm, […], Waters, USA). The injection volume: 5 μL, and the flow rate was 0.3 mL/min.
# Phase A was H2O containing 0.01% formic acid, and phase B was acetonitrile containing 0.01% formic acid. The elution gradient was as follows: 0‐12 mi n, 2‐98% B; 12‐14 min, 2% A; 14‐16 min, 98% A. Other parameters are as follows: column temperature 45 ℃ , flow rate of collision gas and dry gas 9 L/min. Capillary voltage 3.5 kV, temperature 350 ℃ , atomizer pressure 35 psi. Vanquish UHPLC‐Q Exactive plus MS (Thermo Fisher, USA) was collected in both positive modes, operating in full scan mode with 60‐900 m/z.
# (§6) Preparation of primary hepatocytes
# Primary mouse hepatocytes were isolated from male C57BL/6J mice as shown in previous literature. […]
# (§7) Quantitative real‐time PCR analysis […]
# (§8) Immunohistochemistry was determined by used the previously described method. […]
# [2] = tested on: CYP1A1; test: CYP1A1 gene and protein expression in primary hepatocytes; format: cell-based, C57BL/6J mice; settings: colchicine 4–400 µM, 48 h
# Description: (§9) The method of isolating primary mouse hepatocytes from mice (C57BL/6J) was that shown in the previous report, and it is briefly described in Supporting Information.
# (§10) The cells were harvested and used for protein extraction after incubation for 48 h. […]
# (§11) Supplementary materials and methods […]
# as §6
# (§12) Primary mouse hepatocytes were isolated from male C57BL/6J mice as shown in previous literature. The liver was perfused through the portal vei n with Hanks solution twice (the first solution contains 1% penicillin/streptomycin, the second solution contains 0.05% collagenase IV) after mice were anesthetized with ether, and then they were killed by exsanguination. Hepatocytes were harvested by centrifugation three times (The first centrifugal condition is 50 0 rpm for 3 minutes, the second and third centrifugal condition is 1500 rpm for 5 min) after the perfused liver was passed through 100 filter sizes, and they were re‐suspended in Dulbeco Modified Eagle Medium (DMEM) (Hyclone, USA).
# Cells were collected and seeded at a density of 2 × 10^5 cells ml‐1 in plates and cultured overnight in William E (Gibco, USA) medium (0.5 U/mL insulin, 1% penicillin/streptomycin, 10% FBS and 0.4 μg/mL dexamethasone) at 37 ℃ in a humidified Air /CO2 Incubator (5% V/V).
# Quantitative real‐time PCR analysis
# QPCR were performed as described previously. […]
# [3] = tested on: CASPASE-1-GSDMD pathway; test: Western blot of CASPASE-1-GSDMD pathway in primary hepatocytes; format: cell-based, C57BL/6J mice
# Description: as §9, §10, §11, §6, §12
# (§13) Cells were collected and seeded at a density of 2 × 10^5 cells ml‐1 in plates and cultured overnight in William E (Gibco, USA) medium (0.5 U/mL insulin, 1% penicillin/streptomycin, 10% FBS and 0.4 μg/mL dexamethasone) at 37 ℃ in a humidified Air /CO2 Incubator (5% V/V). […]
# QPCR were performed as described previously. Briefly, Trizol reagent (Life Technologi es, Carlsbad, CA, USA) and SYBR Green PCR master mixture (Vazyme, Nanjing, China) were used for the experiment . The qPCR was performed in the CFX Connect real‐time system (Bio‐Rad Laboratories, Hercules, CA, USA), with 18S was used as […]
# The methods for Western blot analysis were described in previous literature. Briefly, RIPA (POO13B, Beyotime Biotech), BCA kit (P0009, Beyotime Biotech), and 5% BSA (A8020, Solarbio) buffer were used for the experiment. […]
# [4] = tested on: liver; test: Colchicine-induced liver injury in mice
# Description: The animal studies were approved by the Animal Care and Use Committee of West China Hospital, Sichuan University (20230412004, the ethics approval date was 12 April 2023). Chengdu Yaokang Biotechnology Co., Ltd. (Chengdu, China), provided the male C57BL/6J mice (18–22 g, 6 to 8 weeks old, No. SCXK (Sichuan) 2020-034). All animals were acclimated to the experimental environment for 1 week, and finally, the animals were anesthetized with CO2 and killed [38].
# ALP, ALT and AST were measured in plasma, and MDA (Nanjing Jiancheng Bioengineering Institute, Nanjing, China) was measured in the liver. Histological characteristics were observed by preparing paraffin sections of liver tissue and performing hematoxylin and eosin (H&E) staining.
# [5] = molecular target: T1, CYP1A1 (Homo sapiens, UniProt P04798); test: Inhibition of CYP1A1 demethylation metabolism of colchicine by co-incubation with inhibitor; format: biochemical; settings: colchicine 25 µM co-cultured with α-naphthoflavone 10 µM; n = 3
# T1 construct: purchased Research Institute for Liver Diseases Co., Ltd. (Shanghai, China)
# T1 sequence (P04798 1-512): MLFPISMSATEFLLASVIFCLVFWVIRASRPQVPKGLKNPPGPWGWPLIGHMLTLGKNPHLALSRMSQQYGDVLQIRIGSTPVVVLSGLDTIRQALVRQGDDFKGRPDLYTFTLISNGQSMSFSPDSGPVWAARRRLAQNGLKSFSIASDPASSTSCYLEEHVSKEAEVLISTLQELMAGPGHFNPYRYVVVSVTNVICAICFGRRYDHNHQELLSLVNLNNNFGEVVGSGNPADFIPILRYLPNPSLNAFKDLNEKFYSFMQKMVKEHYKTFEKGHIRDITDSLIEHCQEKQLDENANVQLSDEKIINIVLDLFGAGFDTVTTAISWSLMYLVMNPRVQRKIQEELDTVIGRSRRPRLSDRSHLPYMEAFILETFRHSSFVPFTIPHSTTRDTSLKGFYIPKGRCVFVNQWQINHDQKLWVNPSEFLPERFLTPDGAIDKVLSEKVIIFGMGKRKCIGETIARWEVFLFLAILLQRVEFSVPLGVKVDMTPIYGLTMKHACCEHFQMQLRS
# Description: The control group was a system without NADPH or colchicine. […] Pre-cooled acetonitrile was used to terminate the reaction, and then centrifugation (4 °C, 12,000 rpm, 20 min) was performed to obtain the sample.
# All samples were analyzed as shown in [17] and are briefly described in Supporting Information.
# [6] = tested on: liver; test: α-Naphthoflavone intervention in colchicine-induced liver injury in mice; format: in vivo, C57BL/6J mice
# [7] = tested on: liver; test: Diosmin co-treatment in colchicine-induced liver injury in mice; format: in vivo, C57BL/6J mice
# Description: To investigate the role of CYP1A1 in colchicine-induced liver injury in mice, a CYP1A1 agonist (diosmin) was used. […] All mice in the control group received 0.5% CMC-Na prior to the administration of water, and the mice were sacrificed for sample collection 24 h after the final administration.
# Supplementary Materials: Inhibition of CYP1A1 Alleviates
# as §1, §2, §3, §4, §5
# Phase A was H2O containing 0.01% formic acid, and phase B was acetonitrile containing 0.01% formic acid. The elution gradient was as follows: 0‐12 mi n, 2‐98% B; 12‐14 min, 2% A; 14‐16 min, 98% A. Other parameters are as follows: column temperature 45 ℃ , flow rate of collision gas and dry gas 9 L/min. Capillary voltage 3.5 kV, temperature 350 ℃ , atomizer pressure 35 psi. […]
# as §7, §8
# [8] = tested on: primary hepatocytes; test: MTT cell viability in primary hepatocytes co-treated with colchicine and diosmin; format: cell-based, C57BL/6J mice; settings: diosmin pre-treatment 2 h, then colchicine 100 µM, 48 h
# Source text: The method of isolating primary mouse hepatocytes from mice (C57BL/6J) was that shown in the previous report, and it is briefly described in Supporting Information. […]
# as §11, §6, §12, §13
# QPCR were performed as described previously. Briefly, Trizol reagent (Life Technologi es, Carlsbad, CA, USA) and SYBR Green PCR master mixture (Vazyme, Nanjing, China) were used for the experiment . […]
# [9] = colchicine 3, 5 mg/kg by gavage for 3 consecutive days
smiles,measurement,setting,value
"COc1cc2c(c(OC)c1OC)-c1ccc(OC)c(=O)cc1[C@@H](NC(C)=O)CC2 [colchicine, Colchicine]",mRNA and protein levels of the CYP1A1 enzyme in the liver,[1],increased
same,mRNA and protein levels of CYP1A1 in primary hepatocytes,[2],dose-dependently increased
same,CASPASE-1-GSDMD pathway in primary hepatocytes,[3]; colchicine group versus control,significantly up-regulated
same,CASPASE-1-GSDMD pathway in the liver,"[4]; colchicine 5 mg/kg, versus control group",activated
same,ALP enzyme level in plasma,[4]; [9],significantly increased
same,ALT enzyme level in plasma,[4]; [9],significantly increased
same,AST enzyme level in plasma,[4]; [9],significantly increased
same,"CASPASE-1 in the liver (gene expression, immunohistochemical staining)",[4]; [9],activated
same,body weight of mice,[4]; [9],decreased significantly
same,gross anatomy of the liver,[4]; [9],enlarged liver and shrunken gallbladder
same,"liver histology, H&E staining",[4]; [9],inflamed liver
O=c1cc(-c2ccccc2)oc2c1ccc1ccccc12 [α-naphthoflavone],demethylation metabolism of colchicine by CYP1A1,[5],significantly inhibited
same,"colchicine-induced liver injury (AST, ALT enzyme activity and MDA oxidative stress)","[6]; α-naphthoflavone 30 mg/kg i.p. 2 h prior to colchicine 5 mg/kg, 3 days",significantly alleviated
same,"CASPASE-1-GSDMD pathway proteins (cl-CASPASE, cl-GSDMD) in the liver","[6]; α-naphthoflavone 30 mg/kg i.p. + colchicine 5 mg/kg, versus colchicine group",significantly down-regulated
same,CASPASE-1-GSDMD pathway protein levels in primary hepatocytes,"[3]; colchicine + different concentrations of α-naphthoflavone, dose-gradient manner, versus colchicine group",restored the abnormal protein levels
COc1ccc(-c2cc(=O)c3c(O)cc(O[C@@H]4O[C@H](CO[C@@H]5O[C@@H](C)[C@H](O)[C@@H](O)[C@H]5O)[C@@H](O)[C@H](O)[C@H]4O)cc3o2)cc1O [diosmin],"colchicine-induced CASPASE-1-GSDMD pathway activation in the liver (cl-CASPASE, cl-GSDMD)","[7]; diosmin 100 mg/kg + colchicine 5 mg/kg, versus colchicine group",enhanced
same,"colchicine-induced hepatotoxicity (MDA, AST, ALT, ALP)",[7]; diosmin 100 mg/kg by gavage 2 h prior to colchicine 5 mg/kg,effectively aggravated
same,primary hepatocyte death caused by colchicine (MTT),[8],exacerbated
same,CASPASE-1-GSDMD pathway in primary hepatocytes,"[3]; diosmin in a dose-gradient manner + colchicine 100 µM, compared to the colchicine-only group",significantly up-regulated
